The values that follow are results of earlier work, collected in US20220184087A1, “METHODS AND COMPOSITIONS RELATING TO TREATMENT OF CANCER” (The Penn State Research Foundation, priority 2019, published 2022).

One series concerns melanoma. To be noted: melanoma patients.
For series [1], the system named is human head and neck cancer cells.
Series [2] deals with murine head and neck cancer cells.
A further series addresses T1, MDM4 (Homo sapiens, UniProt O15151).
T1 sequence (O15151 1-490): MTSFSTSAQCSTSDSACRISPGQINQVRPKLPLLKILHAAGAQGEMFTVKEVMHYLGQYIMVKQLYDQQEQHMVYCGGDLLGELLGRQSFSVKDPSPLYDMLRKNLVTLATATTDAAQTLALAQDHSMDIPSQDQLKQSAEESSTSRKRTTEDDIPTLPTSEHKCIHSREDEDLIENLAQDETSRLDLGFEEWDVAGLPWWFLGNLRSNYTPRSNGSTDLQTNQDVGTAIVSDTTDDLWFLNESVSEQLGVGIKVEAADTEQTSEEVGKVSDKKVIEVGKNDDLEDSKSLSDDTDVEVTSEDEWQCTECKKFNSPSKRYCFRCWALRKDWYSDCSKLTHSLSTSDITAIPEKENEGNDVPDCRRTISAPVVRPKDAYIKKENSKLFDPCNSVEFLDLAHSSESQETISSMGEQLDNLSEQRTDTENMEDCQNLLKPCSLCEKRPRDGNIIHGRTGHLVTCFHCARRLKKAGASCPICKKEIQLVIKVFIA
The note with it: within p53-binding pocket.

In the case of “nivolumab: anti-PD-1 immune checkpoint inhibitor antibody”, in the series on melanoma, the “median PFS” value is listed as 6.9 months.
`C=CCn1c(=O)c2cnc(Nc3ccc(N4CCN(C)CC4)cc3)nc2n1-c1cccc(C(C)(C)O)n1` [MK1775, 2-allyl-1-(6-(2-hydroxypropan-2-yl)pyridin-2-yl)-6-((4-(4-methylpiperazin-1-yl)phenyl)amino)-1H-pyrazolo[3,4-d]pyrimidin-3(2H)-one]: the “sensitization to NK lysis” value in series [1] and in series [2] was “sensitized” throughout.
Consider “ipilimumab: anti-CTLA4 immune checkpoint inhibitor antibody”, for which the “median PFS” value with melanoma is given as 2.9 months.
On to `CCOc1cc(/C=C2/C(=O)N(c3ccccc3)N=C2C)cc(Cl)c1OCC(=O)OC` [SJ-172550], for which the “binding affinity to MDM4” value on MDM4 is “high affinity”.
